Results on two molecules are retold here after publication PMC7178819, “6,7-Dimethoxy-2-phenethyl-1,2,3,4-tetrahydroisoquinoline amides and corresponding ester isosteres as multidrug resistance reversers” (Journal of Enzyme Inhibition and Medicinal Chemistry, 2020).

Data set [1] addresses T1, P-gp (Homo sapiens, UniProt P08183).
T1 construct: expressed in transfected cells; host or cells: MDCK-MDR1 (Madin-Darby Canine Kidney cells, gift of Prof. P. Borst, NKI-AVL)
The data set is described as follows: Inhibition of Calcein-AM transport in MDCK-MDR1 cells. It is filed as cell-based. To be noted: Calcein-AM, MDCK-MDR1 cells; mean ± SEM of two experiments. The procedure:
These experiments were carried out as previously described by Teodori et al. with minor modifications. Each cell line (30 000 cells per well) was seeded into black CulturePlate 96/wells plate with 100 µL medium and allowed to become confluent overnight. 100 µL of test compounds were solubilised in culture medium and added to monolayers, with final concentrations ranging from 1 nM to 100 µM. 96/Wells plate was incubated for 30 min in a humidified atmosphere 5% CO2 at 37 °C. Calcein-AM was added in 100 µL of Phosphate Buffered Saline (PBS) to yield a final concentration of 2.5 µM and plate was incubated for 30 min in a humidified atmosphere 5% CO2 at 37 °C. Each well was washed 3 times with ice cold PBS. Saline buffer was added to each well and the plate was read with Victor3 (PerkinElmer) at excitation and emission wavelengths of 485 and 535 nm, respectively. In these experimental conditions, Calcein cell accumulation in the absence and in the presence of tested compounds was evaluated and fluorescence basal level was estimated with untreated cells. In treated wells the increase of fluorescence with respect to basal level was measured. EC50 values were determined by fitting the fluorescence increase percentage versus log[dose].
The interaction potency between the designed compounds and P-gp was evaluated by measuring the transport inhibition of the pro-fluorescent probe Calcein-AM, that is a P-gp substrate, in a cell line overexpressing P-gp (MDCK-MDR1)[47]. The P-gp interacting profile was further investigated with two other assays: the Apparent Permeability (Papp) determination (BA/AB) in Caco-2 cell monolayer[48]^,[49], and the ATP cell depletion in the MDCK-MDR1 cell line[50]. […] Papp determination measures the ratio between two fluxes: from the basolateral to apical compartments (BA, representative of passive diffusion) and from the apical to basolateral compartments (AB, representative of active transport). […] In the same manner, if (BA/AB) >2, the compound should probably be classified as a substrate.

Data set [2] concerns the target T1, P-gp. The experiment in a line: ATP cell depletion (ATPlite assay) in MDCK-MDR1 cells. It is filed as cell-based. To be noted: Yes/No. The procedure:
The MDCK-MDR1 cells were seeded into 96-well microplate in 100 µL of complete medium at a density 20,000 cells per well. The plate was incubated overnight (O/N) in a humidified atmosphere 5% CO2 at 37 °C. The medium was removed and 100 µL of complete medium either alone or containing different concentrations (ranging from 1 to 100 µM) of test compounds was added. The plate was incubated for 2 h in a humidified 5% CO2 atmosphere at 37 °C. 50 µL of mammalian cell lysis solution was added to all wells and the plate shacked for five minutes in an orbital shaker. 50 µL of substrate solution was added to all wells and the plate shacked for five minutes in an orbital shaker. The plate was dark adapted for ten minutes and the luminescence was measured.
(§1) The interaction potency between the designed compounds and P-gp was evaluated by measuring the transport inhibition of the pro-fluorescent probe Calcein-AM, that is a P-gp substrate, in a cell line overexpressing P-gp (MDCK-MDR1)[47]. The P-gp interacting profile was further investigated with two other assays: the Apparent Permeability (Papp) determination (BA/AB) in Caco-2 cell monolayer[48]^,[49], and the ATP cell depletion in the MDCK-MDR1 cell line[50]. Taking into account the results of the combined tests, an interacting compound can be classified as substrate or inhibitor. Papp determination measures the ratio between two fluxes: from the basolateral to apical compartments (BA, representative of passive diffusion) and from the apical to basolateral compartments (AB, representative of active transport). […] In the same manner, if (BA/AB) >2, the compound should probably be classified as a substrate. […] The selectivity of ligands 1–26 was evaluated by detecting their activity towards the other ABC transporters MRP1 and BCRP, by measuring the inhibition of the efflux of Calcein-AM (i.e., also a MRP1 substrate) in cells overexpressing MRP1 (MDCK-MRP1 cells), and the inhibition of the efflux of the fluorescent probe Hoechst 33342 (i.e. a BCRP substrate) in cells overexpressing BCRP (MDCK-BCRP cells), respectively.

Data set [3] can be described thus: Apparent permeability (Papp) determination (BA/AB) in Caco-2 cell monolayer. Format: in vitro ADME. The following applies: human, Caco-2 monolayer. The procedure: Caco-2 cells were seeded onto a Millicell® assay system (Millipore), where a cell monolayer is set in between a filter cell and a receiver plate, at a density of 10 000 cells/well[46]. The culture medium was replaced every 48 h and the cells kept for 21 days in culture. The Trans Epithelial Electrical Resistance (TEER) of the monolayers was measured daily, before and after the experiment, using an epithelial volt-ohmmeter (Millicell®-ERS). Generally, TEER values greater than 1000 Ω for a 21 days culture, are considered optimal.
After 21 days of Caco-2 cell growth, the medium was removed from filter wells and from the receiver plate, which were filled with fresh HBSS buffer (Invitrogen). This procedure was repeated twice, and the plates were incubated at 37 °C for 30 min. After incubation time, the HBSS buffer was removed and drug solutions and reference compounds were added to the filter well at the concentration of 100 µM, while fresh HBSS was added to the receiver plate. The plates were incubated at 37 °C for 120 min. Afterwards, samples were removed from the apical (filter well) and basolateral (receiver plate) side of the monolayer to measure the permeability.
as §1

Data set [4] can be described thus: Stability test in human plasma (LC-MS/MS). It is filed as in vitro ADME. To be noted: 1 µM, 37 °C; for half-life at 1 µM: human, human plasma. How it is done:
(§2) Each sample was prepared adding 10 µL of working solution 1 to 100 µL of tested matrix (PBS or human plasma) in micro centrifuge tubes. The obtained solutions correspond to 1 µM of analyte.
After the incubation, the samples were added with 300 µL of ISTD solution and centrifuged (room temperature for 5 min at 10,000 rpm). The supernatants were transferred in auto sampler vials and dried under a gentle stream of nitrogen.
(§3) The dried samples were dissolved in 1.0 ml of 10 mM of formic acid in mQ water: acetonitrile 80:20 solution. The obtained sample solutions were analysed by LC-MS/MS methods described in Supplementary material.
For this purpose, a series of experiments were carried out, adding a known amount of analyte in both phosphate buffer solution (PBS) and in human plasma. The samples were analysed by LC-MS/MS method operating in Multiple Reaction Monitoring (MRM) mode[55].
The analyte concentration (1 µM) used during the stability tests is generally smaller than the corresponding Michaelis–Menten constant (KM); therefore, the enzymatic degradation rate is described by a first-order kinetic. Then, by plotting the natural logarithm of the quantitative data versus the incubation time, a linear function can be used and its slope represents the degradation rate (k).

Data set [5] in a line: Stability test in phosphate buffer solution (PBS). The following applies: 1 µM, 37 °C, up to 120 min. It is filed as physicochemical. The procedure: as §2
Each set of samples was incubated in triplicate at four different times, 0, 30, 60 and 120 min at 37 °C. Therefore, the degradation profile of each analyte was represented by a batch of 12 samples (4 incubation times × 3 replicates). After the incubation, the samples were added with 300 µL of ISTD solution and centrifuged (room temperature for 5 min at 10,000 rpm). The supernatants were transferred in auto sampler vials and dried under a gentle stream of nitrogen.
as §3
Due to the presence of ester or amide groups in the structure of compounds 1–26, a study aimed to evaluate their susceptibility to spontaneous or enzymatic hydrolysis, was planned. For this purpose, a series of experiments were carried out, adding a known amount of analyte in both phosphate buffer solution (PBS) and in human plasma. The samples were analysed by LC-MS/MS method operating in Multiple Reaction Monitoring (MRM) mode[55]. […]

T1 sequence (P08183 whole entry): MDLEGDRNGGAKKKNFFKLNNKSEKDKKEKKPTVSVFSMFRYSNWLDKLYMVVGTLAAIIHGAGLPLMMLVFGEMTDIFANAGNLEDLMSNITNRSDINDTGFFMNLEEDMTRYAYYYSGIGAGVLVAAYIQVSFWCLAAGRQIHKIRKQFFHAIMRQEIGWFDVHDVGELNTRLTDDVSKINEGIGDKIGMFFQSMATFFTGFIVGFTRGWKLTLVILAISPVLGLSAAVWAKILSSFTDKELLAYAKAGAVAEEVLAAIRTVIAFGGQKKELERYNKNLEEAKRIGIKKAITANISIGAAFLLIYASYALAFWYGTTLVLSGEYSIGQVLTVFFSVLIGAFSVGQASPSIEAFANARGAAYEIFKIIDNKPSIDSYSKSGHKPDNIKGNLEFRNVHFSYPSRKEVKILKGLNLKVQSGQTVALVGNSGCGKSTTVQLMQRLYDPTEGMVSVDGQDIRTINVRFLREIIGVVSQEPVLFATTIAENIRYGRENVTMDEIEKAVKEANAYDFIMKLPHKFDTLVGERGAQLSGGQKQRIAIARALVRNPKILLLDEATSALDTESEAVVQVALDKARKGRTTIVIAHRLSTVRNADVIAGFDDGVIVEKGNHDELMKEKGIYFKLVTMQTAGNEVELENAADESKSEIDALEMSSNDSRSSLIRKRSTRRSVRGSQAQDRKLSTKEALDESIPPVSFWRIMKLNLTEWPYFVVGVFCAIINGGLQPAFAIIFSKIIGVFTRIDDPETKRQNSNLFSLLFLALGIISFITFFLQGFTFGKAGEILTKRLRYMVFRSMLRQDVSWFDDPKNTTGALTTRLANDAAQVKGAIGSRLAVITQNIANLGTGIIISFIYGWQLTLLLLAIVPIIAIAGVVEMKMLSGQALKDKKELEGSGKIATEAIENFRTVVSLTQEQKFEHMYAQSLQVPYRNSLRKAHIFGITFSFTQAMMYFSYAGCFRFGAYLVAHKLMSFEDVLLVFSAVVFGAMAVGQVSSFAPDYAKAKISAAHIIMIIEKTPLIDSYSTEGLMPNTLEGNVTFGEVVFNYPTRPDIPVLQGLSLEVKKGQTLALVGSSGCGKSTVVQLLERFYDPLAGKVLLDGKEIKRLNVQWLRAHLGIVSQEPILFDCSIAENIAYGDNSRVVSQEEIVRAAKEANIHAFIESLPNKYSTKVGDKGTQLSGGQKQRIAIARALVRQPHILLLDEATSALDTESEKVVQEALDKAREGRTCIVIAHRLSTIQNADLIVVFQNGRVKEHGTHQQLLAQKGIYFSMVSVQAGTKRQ

With `COc1cncc(C(=O)Nc2ccc(CCN3CCc4cc(OC)c(OC)cc4C3)cc2)n1` [Compound 12, N-(4–(2-(6,7-dimethoxy-3,4-dihydroisoquinolin-2(1H)-yl)ethyl)phenyl)-6-methoxypyrazine-2-carboxamide], the EC50 in data set [1] was 870 ± 170 nM. Also, the ATP cell depletion result in data set [2] was “No”. Besides, the efflux ratio at 120 min, 100 µM in data set [3] turned out to be 6. For the same molecule, the “stability in human plasma” value in data set [4] (up to 120 min) is “stable over 120 min”. The molecule also returned a half-life at 1 µM in data set [4] not below 240 min. The “stability in PBS” value in data set [5] is “unmodified”.

On to `COc1cncc(C(=O)Oc2ccc(CCN3CCc4cc(OC)c(OC)cc4C3)cc2)n1` [Compound 25, 4–(2-(6,7-Dimethoxy-3,4-dihydroisoquinolin-2(1H)-yl)ethyl)phenyl 6-methoxypyrazine-2-carboxylate], for which the EC50 in data set [1] is 220 ± 40 nM. The ATP cell depletion entry in data set [2] is listed as “No”. For the same molecule, the efflux ratio at 120 min, 100 µM in data set [3] is 4.7. In addition, in data set [4], the half-life at 1 µM is approximately 6 min. In data set [5], the “stability in PBS” value is recorded as “unmodified”.
